From patent publication US20160303056A1, “FASTING MIMICKING DIET (FMD) AND GLUCOSE LOWERING DRUGS PROTECT NORMAL CELLS AND GENERATE CANCER SENSITIZING CONDITIONS IN RESPONSE TO STANDARD AND HIGH GLUCOSE CONDITIONS INDUCED BY RAPAMYCIN AND DEXAMETHASONE” (UNIVERSITY OF SOUTHERN CALIFORNIA, priority 2015, published 2016) come the findings set out here.

Series [1] is described as follows: Blood glucose levels in mice injected ip with metformin. In kind it is in vivo, mouse. Particulars: metformin 50 mg/kg ip, saline for control mice (FIG. 1E).
The nature of series [2]: Circulating glucose levels in mice given rapamycin or dexamethasone, with or without insulin, STS or FMD. Format: in vivo, mouse (C57BL/6). Particulars: rapamycin or dexamethasone ip daily for 14 days, compared with ad lib (FIG. 1B).
In a further series the test system is C57BL/6 mice. To be noted: mouse, in vivo.

As to `CN(C)C(=N)NC(=N)N` [Metformin, N,N-Dimethylimidodicarbonimidic diamide], the circulating glucose levels result in series [1] is recorded as “reducing circulating glucose levels”. Take `C[C@@H]1C[C@H]2[C@@H]3CCC4=CC(=O)C=C[C@]4(C)[C@@]3(F)[C@@H](O)C[C@]2(C)[C@@]1(O)C(=O)CO` [dexamethasone]: the circulating glucose levels result in series [2] was “caused an increase in glucose levels”. Besides, in the series on C57BL/6 mice, the “sensitization of mice to chemotherapy (mortality)” value is on record as “increased mortality”. Take `CO[C@H]1C[C@@H]2CC[C@@H](C)[C@@](O)(O2)C(=O)C(=O)N2CCCC[C@H]2C(=O)O[C@H]([C@H](C)C[C@@H]2CC[C@@H](O)[C@H](OC)C2)CC(=O)[C@H](C)/C=C(\C)[C@@H](O)[C@@H](OC)C(=O)[C@H](C)C[C@H](C)/C=C/C=C/C=C/1C` [rapamycin]: the circulating glucose levels entry in series [2] was “caused an increase in glucose levels”. The “sensitization of mice to chemotherapy (mortality)” value in the series on C57BL/6 mice is “increased mortality”.
